Values joined by “and” are separate entries in the source; they are usually repeats but may differ in a detail not shown here. Equal values may be shown once.
System: 156681-154-R-J1 tumor spheroid viability
Test: Anticancer human tumor 156681-154-R-J1 patient-derived melanoma cell line growth inhibition
Details: spheroids with HUVEC and MSC; for viability, T/C: stronger effect = lower value
Summary of the method: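 Single agents and combinations were tested on spheroids built from tumor cells plus HUVEC and hMSC, at half-log dilutions starting at or near clinical Cmax, else 10 microM; final DMSO 0.25% (v/v).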

[1] = curve of first compound, second compound 0.003 µM
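Further: spheroids exposed to compounds for 7 days before readout.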
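Wherever viability, T/C is given: percent of vehicle control viability where 100% = DMSO-treated spheroids.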

`Cc1cc(C)c(CNC(=O)c2cc(-c3ccc(CN4CCOCC4)cc3)cc3c2cnn3C2CCCC2)c(=O)[nH]1` + CC[C@@]1(O)C(=O)OCc2c1cc1n(c2=O)Cc2cc3c(CN(C)C)c(O)ccc3nc2-1 showed an IC50 [1] greater than 10000 nM, an IC50 (curve of first compound, second compound 0.00949 µM) greater than 10000 nM and an IC50 (curve of first compound, second compound 0.03 µM) of 8490 nM. The IC50 (curve of first compound, second compound 0.0949 µM) was less than 31.6 nM, the IC50 (curve of first compound, second compound 0.3 µM) was less than 31.6 nM and the viability, T/C (second compound 0.003 µM, first compound 0.0316 µM) was 137%. The viability, T/C (second compound 0.003 µM, first compound 0.1 µM) was 111%, the viability, T/C (second compound 0.003 µM, first compound 0.316 µM) was 86.7% and the viability, T/C (second compound 0.003 µM, first compound 1 µM) was 87.8%. For the same molecule, the viability, T/C (second compound 0.003 µM, first compound 3.16 µM) was 84.4%, the viability, T/C (second compound 0.003 µM, first compound 10 µM) was 82.9% and the viability, T/C (second compound 0.00949 µM, first compound 0.0316 µM) was 83%. For the same molecule, the viability, T/C (second compound 0.00949 µM, first compound 0.1 µM) was 81.6%, the viability, T/C (second compound 0.00949 µM, first compound 0.316 µM) was 73.8% and the viability, T/C (second compound 0.00949 µM, first compound 1 µM) was 84.8%. For the same molecule, the viability, T/C (second compound 0.00949 µM, first compound 3.16 µM) was 84.5%, the viability, T/C (second compound 0.00949 µM, first compound 10 µM) was 79.5% and the viability, T/C (second compound 0.03 µM, first compound 0.0316 µM) was 65.7%. For the same molecule, the viability, T/C (second compound 0.03 µM, first compound 0.1 µM) was 66.6%, the viability, T/C (second compound 0.03 µM, first compound 0.316 µM) was 55.4% and the viability, T/C (second compound 0.03 µM, first compound 1 µM) was 57.7%. The viability, T/C (second compound 0.03 µM, first compound 3.16 µM) was 49.3%, the viability, T/C (second compound 0.03 µM, first compound 10 µM) was 51% and the viability, T/C (second compound 0.0949 µM, first compound 0.0316 µM) was 23.4%. The viability, T/C (second compound 0.0949 µM, first compound 0.1 µM) was 17.8%, the viability, T/C (second compound 0.0949 µM, first compound 0.316 µM) was 25.1% and the viability, T/C (second compound 0.0949 µM, first compound 1 µM) was 20.6%. It also gave a viability, T/C (second compound 0.0949 µM, first compound 3.16 µM) of 17.5%, a viability, T/C (second compound 0.0949 µM, first compound 10 µM) of 22.2% and a viability, T/C (second compound 0.3 µM, first compound 0.0316 µM) of 31.3%. It also gave a viability, T/C (second compound 0.3 µM, first compound 0.1 µM) of 29.5%, a viability, T/C (second compound 0.3 µM, first compound 0.316 µM) of 31.8% and a viability, T/C (second compound 0.3 µM, first compound 1 µM) of 30.9%. It also gave a viability, T/C (second compound 0.3 µM, first compound 3.16 µM) of 27.6% and a viability, T/C (second compound 0.3 µM, first compound 10 µM) of 30.6%.
For `Cc1sc2c(c1C)C(c1ccc(Cl)cc1)=NC(CC(=O)Nc1ccc(O)cc1)c1nnc(C)n1-2` (configuration not stated) + COc1cc2c(cc1O)CCNC21CSC2c3c(OC(C)=O)c(C)c4c(c3C(COC1=O)N1C(O)C3Cc5cc(C)c(OC)c(O)c5C(C21)N3C)OCO4, the IC50 (curve of first compound, second compound 30 pM) was greater than 3000 nM, the IC50 (curve of first compound, second compound 94.9 pM) was 2030 nM and the IC50 (curve of first compound, second compound 0.0003 µM) was 197 nM. It also gave an IC50 (curve of first compound, second compound 0.000949 µM) of less than 9.49 nM, an IC50 [1] of less than 9.49 nM and a viability, T/C (second compound 30 pM, first compound 0.00949 µM) of 104%. The viability, T/C (second compound 30 pM, first compound 0.03 µM) was 92.1%, the viability, T/C (second compound 30 pM, first compound 0.0949 µM) was 103% and the viability, T/C (second compound 30 pM, first compound 0.3 µM) was 109%. The viability, T/C (second compound 30 pM, first compound 0.949 µM) was 68.3%, the viability, T/C (second compound 30 pM, first compound 3 µM) was 61.8% and the viability, T/C (second compound 94.9 pM, first compound 0.00949 µM) was 108%. For the same molecule, the viability, T/C (second compound 94.9 pM, first compound 0.03 µM) was 97.1%, the viability, T/C (second compound 94.9 pM, first compound 0.0949 µM) was 95.8% and the viability, T/C (second compound 94.9 pM, first compound 0.3 µM) was 85.5%. It also gave a viability, T/C (second compound 94.9 pM, first compound 0.949 µM) of 82.5%, a viability, T/C (second compound 94.9 pM, first compound 3 µM) of 34.7% and a viability, T/C (second compound 0.0003 µM, first compound 0.00949 µM) of 90.7%. It also gave a viability, T/C (second compound 0.0003 µM, first compound 0.03 µM) of 76.7%, a viability, T/C (second compound 0.0003 µM, first compound 0.0949 µM) of 64.9% and a viability, T/C (second compound 0.0003 µM, first compound 0.3 µM) of 45.2%. The viability, T/C (second compound 0.0003 µM, first compound 0.949 µM) was 15.7%, the viability, T/C (second compound 0.0003 µM, first compound 3 µM) was 9.14% and the viability, T/C (second compound 0.000949 µM, first compound 0.00949 µM) was 1.73%. The viability, T/C (second compound 0.000949 µM, first compound 0.03 µM) was 3.32%, the viability, T/C (second compound 0.000949 µM, first compound 0.0949 µM) was 2.97% and the viability, T/C (second compound 0.000949 µM, first compound 0.3 µM) was 1.78%. It also gave a viability, T/C (second compound 0.000949 µM, first compound 0.949 µM) of 0.17%, a viability, T/C (second compound 0.000949 µM, first compound 3 µM) of 0.15% and a viability, T/C (second compound 0.003 µM, first compound 0.00949 µM) of 0.14%. It also gave a viability, T/C (second compound 0.003 µM, first compound 0.03 µM) of 0.17%, a viability, T/C (second compound 0.003 µM, first compound 0.0949 µM) of 0.12% and a viability, T/C (second compound 0.003 µM, first compound 0.3 µM) of 0.12%. It also gave a viability, T/C (second compound 0.003 µM, first compound 0.949 µM) of 0.12% and a viability, T/C (second compound 0.003 µM, first compound 3 µM) of 0.21%.
With `CC1COCCN1c1cc(-c2ccnn2C)c2ccnc(-c3ccn[nH]3)c2n1` (configuration not stated) the viability, T/C (compound 0.0316 µM) was 83.8% and 68.1% and 84.5%, the viability, T/C (compound 0.1 µM) was 77.6% and 66% and 75.6% and the viability, T/C (compound 0.316 µM) was 37.2% and 34.3% and 47.2%. For the same molecule, the viability, T/C (compound 1 µM) was 30.1% and 21.7% and 29.9%, the viability, T/C (compound 3.16 µM) was 31.1% and 24.6% and 29.9% and the viability, T/C (compound 10 µM) was 25.2% and 20.8% and 22.6%. The IC50 (curve of compound) was 220 nM and 179 nM and 286 nM.
With `CC[C@@]1(O)C(=O)OCc2c1cc1n(c2=O)Cc2cc3c(CN(C)C)c(O)ccc3nc2-1` the viability, T/C (compound 0.00949 µM) was 85.4% [middle of 10 runs], the viability, T/C (compound 0.0949 µM) was 22.1% [middle of 10 runs] and the viability, T/C (compound 0.3 µM) was 31.3% [middle of 10 runs]. The IC50 (compound alone, run of 10/17/2019) was 39.5 nM [middle of 5 runs] and the IC50 (compound alone, run of 10/25/2019) was 45.2 nM [middle of 5 runs].

Reference: PubChem BioAssay AID1845195 (Molecular Pharmacology Branch, DTP, NCI, 2023)
